Assay results as given in patent US9187448B2, “Flavonoid compounds” (CARDERO THERAPEUTICS, INC., priority 2011, dated 2015).

What was measured:
[1] = test system: mitochondrial complex proteins (MCP) I and V; assay: Western blot of mitochondrial complex proteins (MCP) in coronary artery endothelial cells; format: cell-based, human (HCAEC) or bovine (BCAEC); details: HCAEC or BCAEC, Western blot band intensity; results shown in FIG. 2
Protocol: The effect of (−)-epicatechin analogs on mitochondrial complex proteins (MCP) I and V was studied human (HCAEC) or bovine (BCAEC) Coronary Artery Endothelial cells. Western blots were performed as follows: Approximately 50 mg of cells were homogenized with a polytron in 500 μl lysis buffer (1% triton X-100, 20 mM Tris, 140 mM NaCl, 2 mM EDTA, and 0.1% SDS) with protease and phosphatase inhibitor cocktails (P2714 and P2850, Sigma-Aldrich, St. Louis, Mo.) supplemented with 0.15 mM PMSF, 5 mM Na3VO4 and 3 mM NaF. Homogenates were passed through an insulin syringe five times, sonicated for 30 min at 4° C. and centrifuged (12,000 g) for 10 min. The total protein content was measured in the supernatant using the Bradford method. A total of 40 μg of protein was loaded onto a 4%-15% precast TGX polyacrylamide gel (Bio-rad), electrotransferred (12 V, 50 minutes), incubated for 1 h in blocking solution (5% nonfat dry milk in TBS plus 0.1% Tween 20 [TBS-T]). Blots were probed with a cocktail of monoclonal antibodies to electron transport chain proteins (OXPHOS) (20 KDa subunit of complex I, 26 KDa subunit of complex IV, subunit core 2 of complex III, 30 Kda complex II and ATP synthase 54 Kda complex V). […] The band intensities were digitally quantified using ImageJ software (http://www.nih.gov).

[2] = rat; cited from earlier work
MRP2 efflux transporter = target: T1, MRP2 efflux transporter (Homo sapiens, UniProt Q92887); details: human intestinal Caco-2 cells; cited from earlier work
T1 construct: In a study of enterocyte absorption using human intestinal Caco-2 cells; endogenous in cells; host or cells: Caco-2

[3] = humans, ingested in chocolate; cited from earlier work

T1 sequence (Q92887 whole entry): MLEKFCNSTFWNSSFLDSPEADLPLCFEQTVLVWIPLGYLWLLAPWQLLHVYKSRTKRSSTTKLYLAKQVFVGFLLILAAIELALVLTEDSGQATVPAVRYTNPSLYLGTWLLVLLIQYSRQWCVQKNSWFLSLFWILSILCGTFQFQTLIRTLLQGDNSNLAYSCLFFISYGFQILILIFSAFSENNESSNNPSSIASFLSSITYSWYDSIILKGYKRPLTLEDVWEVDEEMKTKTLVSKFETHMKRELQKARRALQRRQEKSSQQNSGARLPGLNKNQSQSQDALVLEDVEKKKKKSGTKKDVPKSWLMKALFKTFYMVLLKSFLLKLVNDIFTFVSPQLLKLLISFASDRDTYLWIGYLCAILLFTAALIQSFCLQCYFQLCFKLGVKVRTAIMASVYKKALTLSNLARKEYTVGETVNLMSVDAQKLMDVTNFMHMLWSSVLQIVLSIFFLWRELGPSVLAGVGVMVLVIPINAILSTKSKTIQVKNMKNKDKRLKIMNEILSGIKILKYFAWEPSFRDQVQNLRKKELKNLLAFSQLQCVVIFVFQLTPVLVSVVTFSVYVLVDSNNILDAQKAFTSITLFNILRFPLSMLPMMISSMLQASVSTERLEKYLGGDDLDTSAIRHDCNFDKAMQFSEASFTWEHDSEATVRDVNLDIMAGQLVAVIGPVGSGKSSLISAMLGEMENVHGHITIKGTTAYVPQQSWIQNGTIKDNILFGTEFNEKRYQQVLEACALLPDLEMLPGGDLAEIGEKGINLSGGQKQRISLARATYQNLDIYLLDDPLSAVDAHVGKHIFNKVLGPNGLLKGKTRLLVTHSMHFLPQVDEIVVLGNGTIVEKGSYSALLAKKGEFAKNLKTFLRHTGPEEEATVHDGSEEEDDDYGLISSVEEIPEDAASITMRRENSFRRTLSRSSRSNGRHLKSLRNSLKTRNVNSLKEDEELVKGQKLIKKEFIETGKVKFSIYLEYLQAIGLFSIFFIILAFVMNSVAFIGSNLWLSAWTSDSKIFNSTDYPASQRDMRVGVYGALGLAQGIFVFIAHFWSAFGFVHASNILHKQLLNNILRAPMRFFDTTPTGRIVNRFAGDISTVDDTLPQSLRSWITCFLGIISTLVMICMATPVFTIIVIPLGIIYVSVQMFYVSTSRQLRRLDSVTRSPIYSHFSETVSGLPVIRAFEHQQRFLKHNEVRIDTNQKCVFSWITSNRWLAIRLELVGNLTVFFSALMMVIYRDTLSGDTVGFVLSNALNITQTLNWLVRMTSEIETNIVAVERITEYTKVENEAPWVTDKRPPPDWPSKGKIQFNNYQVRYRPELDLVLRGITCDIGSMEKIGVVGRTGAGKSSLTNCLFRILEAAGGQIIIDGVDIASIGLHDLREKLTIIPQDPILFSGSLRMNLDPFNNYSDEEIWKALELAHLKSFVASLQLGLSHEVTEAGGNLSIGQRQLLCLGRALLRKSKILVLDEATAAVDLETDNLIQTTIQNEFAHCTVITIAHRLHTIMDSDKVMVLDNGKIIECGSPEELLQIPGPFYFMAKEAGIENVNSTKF

COc1cc(OC)c2c(c1)O[C@H](c1ccc(O)c(O)c1)[C@H](O)C2 [5,7-dimethyl substituted (−)-epicatechin]
effect on MCP (activity/potency) relative to (−)-epicatechin [1]: less potent than the unsubstituted parent

Oc1cc(O)c2c(c1)O[C@H](c1ccc(O)c(O)c1)[C@@H](O)C2 [(+)-catechin]
effect on absorption of (−)-epicatechin [2]: inhibited

Oc1cc(O)c2c(c1)O[C@H](c1ccc(O)c(O)c1)[C@H](O)C2 [(−)-epicatechin, (2R,3R)-2-(3,4-dihydroxyphenyl)chroman-3,5,7-triol]
efflux transporter substrate status (MRP2 efflux transporter): substrate of the MRP2 efflux transporter | fraction absorbed [3]: approximately 30%

CN(C)C(=O)CCSC(SCCC(=O)O)c1cccc(/C=C/c2ccc3ccc(Cl)cc3n2)c1 (centres unmarked) [MK-571]
effect of MRP2 inhibition on absorption of (−)-epicatechin (MRP2 efflux transporter): increased absorption of (−)-epicatechin somewhat
